Data: US5276043A, “Method for treatment of neurodegenerative diseases” (priority 1993, dated 1994)
Like-named read-outs stand apart in the source and are kept apart here.

Experiments:
[1] = system: synaptosomes from the striatal area of rat brain; experiment: [3H]-dopamine release from rat striatal synaptosomes; format: cell-based, Sprague-Dawley rats; conditions: read-out: Dopamine Release (percent release relative to (S)-(-)-nicotine)
Experimental: Dopamine release was measured by preparing synaptosomes from the striatal area of rat brain obtained from Sprague-Dawley rats generally according to the procedures set forth by Nagy, et al., J. Neurochem., Vol. 43, pp. 1114-1123 (1984). Striata from 4 rats were homogenized in 2 ml of 0.32M sucrose buffered with 5 mM HEPES (pH 7.5), using a glass-teflon tissue grinder. The homogenate was diluted to 5 ml with additional homogenization solution and centrifuged at 1000×g for 10 min. This procedure was repeated on the new pellet and the resulting supernatant was centrifuged at 12,000×g for 20 min. A 3 layer discontinuous Percoll gradient consisting of 16 percent, 10 percent and 7.5 percent Percoll in HEPES-buffered sucrose was made with the final pellet dispersed in the top layer. After centrifugation at 15,000×g for 20 min., the synaptosomes were recovered above the 16 percent layer with a pasteur pipette, diluted with 8 ml of perfusion buffer (128 mM NaCl, 2.4 mM KCl, 3.2 mM CaCl2, 1.2 mM KH2 PO4, 1.2 mM MgSO4, 25 mM HEPES pH 7.4, 10 mM dextrose, 1 mM ascorbate, 0.01 mM pargyline), and centrifuged at 15,000×g for 20 min. The new pellet was collected and re-suspended in perfusion buffer. The synaptosome suspension was incubated for 10 min. at 37° C. Then [^3 H]-dopamine (Amersham, 40-60 Ci/mmol) was added to the suspension to give a final concentration of 0.1 μM in suspension, and the suspension was incubated for another 5 min. Using this method, 30 to 90 percent of the dopamine was taken up into the synaptosomes, as determined by scintillation counting following filtration through glass fiber filters soaked with 0.5 percent polyethyleneimine. A continuous perfusion system was used to monitor release following exposure to each ligand. The ligands are named in Table I. Synaptosomes were loaded onto glass fiber filters (Gelman type A/E). Perfusion buffer was dripped onto the filters (0.2-0.3 ml/min.) and pulled through the filters with a peristaltic pump. Synaptosomes were washed with perfusion buffer for a minimum of 20 min. before addition of the ligand. After the addition of a 0.2 ml of a 20 μM solution of ligand, the perfusate was collected into scintillation vials at 1 min. intervals and the dopamine released was quantified by scintillation counting. Peaks of radioactivity released above background were summed and the average basal release during that time was subtracted from the total. Release was expressed as a percentage of release obtained with an equal concentration of (S)-(-)-nicotine.

[2] = target: high affinity nicotinic receptors; experiment: Inhibition of L-[3H]nicotine binding to mouse brain membrane preparations; set-up: species or system Mice (DBA strain); conditions: mouse brain membranes, 10 nM L-[3H]nicotine, 2 hr at 4° C.; Ki calculated from IC50 by Cheng method; read-out: Ki (concentration of compound which inhibits 50 percent of L-[3H]nicotine binding)
Experimental: Mice (DBA strain) were maintained on a 12 hour light/dark cycle and were allowed free access to water and food supplied by Wayne Lab Blox, Madison, Wis. Animals used in the present studies were 60 to 90 days of age and weighed 20 to 25 g. Brain membrane preparations were obtained from pooled brain tissue of both males and females.
Mice were killed by cervical dislocation. Brains were removed and placed on an ice-cold platform. The cerebellum was removed and the remaining tissue was placed in 10 volumes (weight:volume) of ice-cold buffer (Krebs-RingersHEPES:NaCl, 118 mM; KCl, 4.8 mM; CaCl2, 2.5 mM; MgSO4, 1.2 mM; HEPES, 20 mM; pH to 7.5 with NaOH) and homogenized with a glass-Teflon tissue grinder. The resulting homogenate was centrifuged at 18000×g for 20 min. and the resulting pellet was resuspended in 20 volumes of water. After 60 min. incubation at 4° C., a new pellet was collected by centrifugation at 18000×g for 20 min. After resuspension in 10 volumes of buffer, a new final pellet was again collected by centrifugation at 18000×g for 20 min. Prior to each centrifugation step, the suspension was incubated at 37° C. for 5 min. to promote hydrolysis of endogenous acetylcholine. […] Protein was determined by the method of Lowry, et al., J. Biol. Chem., Vol. 193, pp. 265-275 (1951), using bovine serum albumin as the standard.
The binding of L-[^3 H]nicotine was measured using a modification of the method of Romano, et al., Science, Vol. 210, pp. 647-650 (1980) as described previously by Marks, et al., Mol. Pharmacol., Vol. 30, pp. 427-436 (1986). The binding of L-[^3 H]nicotine was measured using a 2 hr. incubation at 4° C. […] Nonspecific binding was determined by inclusion of 10 μM nonradioactive nicotine in the incubations. The inhibition of L-[^3 H]nicotine binding by test compounds was determined by including one of eight different concentrations of the test compound in the incubation. […] Inhibition constants (Ki values) were calculated from the IC50 values using the method of Cheng, et al., Biochem. Pharmacol., Vol. 22, pp. 3099-3108 (1973). […]

[3] = 0.2 ml of 20 μM ligand solution, relative to equal concentration of (S)-(-)-nicotine

| SMILES | Emax at 20 µM [1, 3] [%] | Ki [2] [nM] | Emax at 20 µM [1] [%] |
| --- | --- | --- | --- |
| C1=CCC(c2cccnc2)NC1 (racemic) [anatabine] | 70 | 240 |  |
| Fc1cncc(C2=NCCCC2)c1 [5-fluoroanabaseine] | 50 |  |  |
| CN1CCCCC1c1cccnc1 (stereo not shown) [methyl anabasine] |  | 450 | 5 |
| c1cncc(C2=NCCC2)c1 [myosmine] | 10 | 3700 |  |
